From article PMC4061985 (Journal of immunology (Baltimore, Md. : 1950), 2009)
Residues, ends and D or L forms follow the SMILES beside them.

What was measured:
[1] = molecular target: HLA-DR0901 protein (Homo sapiens, UniProt P01903+P01911, A100R/A103E/D57H/D86V/F55Y/F60I/F76Y/I96F/K127E/L162R/M171V/P40D/Q125H/Q99R/R33Q/R42F/S133A/S66N/T210M/V115G/W38K/Y107V/Y59G/Y89S); assay: Peptide binding competition assay, DR0901
[2] = molecular target: HLA-DRA1/B1*0901, soluble recombinant protein (human)

Molecule	Kd [1] [µM]	Kd [2] [µM]
CC[C@H](C)[C@H](NC(=O)[C@H](CCCCN)NC(=O)[C@H](CC(C)C)NC(=O)[C@H](CC(C)C)NC(=O)[C@H](CO)NC(=O)[C@H](Cc1ccc(O)cc1)NC(=O)[C@H](CC(N)=O)NC(=O)[C@H](Cc1ccccc1)NC(=O)[C@H](CC(N)=O)NC(=O)[C@@H](N)CC(C)C)C(=O)N[C@H](C(=O)N[C@H](C(=O)N[C@@H](CC(=O)O)C(=O)O)C(C)C)[C@@H](C)CC [LNFNYSLLKIIVD] (H-LNFNYSLLKIIVD-OH)	0.067 ± 0.008	–
CC[C@H](C)[C@H](NC(=O)[C@H](CCCCN)NC(=O)[C@H](CCSC)NC(=O)[C@H](CC(C)C)NC(=O)[C@H](CO)NC(=O)[C@H](Cc1ccc(O)cc1)NC(=O)[C@H](CC(N)=O)NC(=O)[C@H](Cc1ccccc1)NC(=O)[C@H](CC(N)=O)NC(=O)[C@@H](N)CC(C)C)C(=O)N[C@H](C(=O)N[C@H](C(=O)N[C@@H](CC(=O)O)C(=O)O)C(C)C)[C@@H](C)CC [LNFNYSLMKIIVD] (H-LNFNYSLMKIIVD-OH)	0.046 ± 0.002	–
CC[C@H](C)[C@H](NC(=O)[C@H](CCCCN)NC(=O)[C@H](CC(N)=O)NC(=O)[C@H](CC(C)C)NC(=O)[C@H](CO)NC(=O)[C@H](Cc1ccc(O)cc1)NC(=O)[C@H](CC(N)=O)NC(=O)[C@H](Cc1ccccc1)NC(=O)[C@H](CC(N)=O)NC(=O)[C@@H](N)CC(C)C)C(=O)N[C@H](C(=O)N[C@H](C(=O)N[C@@H](CC(=O)O)C(=O)O)C(C)C)[C@@H](C)CC [LNFNYSLNKIIVD] (H-LNFNYSLNKIIVD-OH)	0.093 ± 0.019	–
CC[C@H](C)[C@H](NC(=O)[C@H](CCCCN)NC(=O)[C@@H]1CCCN1C(=O)[C@H](CC(C)C)NC(=O)[C@H](CO)NC(=O)[C@H](Cc1ccc(O)cc1)NC(=O)[C@H](CC(N)=O)NC(=O)[C@H](Cc1ccccc1)NC(=O)[C@H](CC(N)=O)NC(=O)[C@@H](N)CC(C)C)C(=O)N[C@H](C(=O)N[C@H](C(=O)N[C@@H](CC(=O)O)C(=O)O)C(C)C)[C@@H](C)CC [LNFNYSLPKIIVD] (H-LNFNYSLPKIIVD-OH)	0.031 ± 0.002	–
CC[C@H](C)[C@H](NC(=O)[C@H](CCCCN)NC(=O)[C@H](CCCNC(=N)N)NC(=O)[C@H](CC(C)C)NC(=O)[C@H](CO)NC(=O)[C@H](Cc1ccc(O)cc1)NC(=O)[C@H](CC(N)=O)NC(=O)[C@H](Cc1ccccc1)NC(=O)[C@H](CC(N)=O)NC(=O)[C@@H](N)CC(C)C)C(=O)N[C@H](C(=O)N[C@H](C(=O)N[C@@H](CC(=O)O)C(=O)O)C(C)C)[C@@H](C)CC [LNFNYSLRKIIVD] (H-LNFNYSLRKIIVD-OH)	0.13 ± 0.019	–
CC[C@H](C)[C@H](NC(=O)[C@H](CCCCN)NC(=O)[C@H](CO)NC(=O)[C@H](CC(C)C)NC(=O)[C@H](CO)NC(=O)[C@H](Cc1ccc(O)cc1)NC(=O)[C@H](CC(N)=O)NC(=O)[C@H](Cc1ccccc1)NC(=O)[C@H](CC(N)=O)NC(=O)[C@@H](N)CC(C)C)C(=O)N[C@H](C(=O)N[C@H](C(=O)N[C@@H](CC(=O)O)C(=O)O)C(C)C)[C@@H](C)CC [LNFNYSLSKIIVD] (H-LNFNYSLSKIIVD-OH)	0.031 ± 0.003	–
CC[C@H](C)[C@H](NC(=O)[C@H](CCCCN)NC(=O)[C@H](CC(=O)O)NC(=O)[C@H](CC(C)C)NC(=O)[C@H](Cc1ccc(O)cc1)NC(=O)[C@H](Cc1ccc(O)cc1)NC(=O)[C@H](CC(N)=O)NC(=O)[C@H](Cc1ccccc1)NC(=O)[C@H](CC(N)=O)NC(=O)[C@@H](N)CC(C)C)C(=O)N[C@H](C(=O)N[C@H](C(=O)N[C@@H](CC(=O)O)C(=O)O)C(C)C)[C@@H](C)CC [LNFNYYLDKIIVD] (H-LNFNYYLDKIIVD-OH)	3.4	–
CC[C@H](C)[C@H](NC(=O)[C@H](CCCCN)NC(=O)[C@H](CC(=O)O)NC(=O)[C@H](CC(C)C)NC(=O)[C@H](CO)NC(=O)[C@H](Cc1ccc(O)cc1)NC(=O)[C@H](CC(N)=O)NC(=O)[C@H](CC(C)C)NC(=O)[C@H](CC(N)=O)NC(=O)[C@@H](N)CC(C)C)C(=O)N[C@H](C(=O)N[C@H](C(=O)N[C@@H](CC(=O)O)C(=O)O)C(C)C)[C@@H](C)CC [LNLNYSLDKIIVD] (H-LNLNYSLDKIIVD-OH)	0.45 ± 0.08	–
CC[C@H](C)[C@H](NC(=O)[C@H](CCCCN)NC(=O)[C@H](CC(=O)O)NC(=O)[C@H](CC(C)C)NC(=O)[C@H](CO)NC(=O)[C@H](Cc1ccc(O)cc1)NC(=O)[C@H](CC(N)=O)NC(=O)[C@H](CCSC)NC(=O)[C@H](CC(N)=O)NC(=O)[C@@H](N)CC(C)C)C(=O)N[C@H](C(=O)N[C@H](C(=O)N[C@@H](CC(=O)O)C(=O)O)C(C)C)[C@@H](C)CC [LNMNYSLDKIIVD] (H-LNMNYSLDKIIVD-OH)	0.6 ± 0.15	–
CC[C@H](C)[C@H](NC(=O)[C@H](CCCCN)NC(=O)[C@H](CC(=O)O)NC(=O)[C@H](CC(C)C)NC(=O)[C@H](CO)NC(=O)[C@H](Cc1ccc(O)cc1)NC(=O)[C@H](CC(N)=O)NC(=O)[C@@H](NC(=O)[C@H](CC(N)=O)NC(=O)[C@@H](N)CC(C)C)C(C)C)C(=O)N[C@H](C(=O)N[C@H](C(=O)N[C@@H](CC(=O)O)C(=O)O)C(C)C)[C@@H](C)CC [LNVNYSLDKIIVD] (H-LNVNYSLDKIIVD-OH)	0.44 ± 0.13	–
CC[C@H](C)[C@H](NC(=O)[C@H](CCCCN)NC(=O)[C@H](CC(=O)O)NC(=O)[C@H](CC(C)C)NC(=O)[C@H](CO)NC(=O)[C@H](Cc1ccc(O)cc1)NC(=O)[C@H](CC(N)=O)NC(=O)[C@H](Cc1ccc(O)cc1)NC(=O)[C@H](CC(N)=O)NC(=O)[C@@H](N)CC(C)C)C(=O)N[C@H](C(=O)N[C@H](C(=O)N[C@@H](CC(=O)O)C(=O)O)C(C)C)[C@@H](C)CC [LNYNYSLDKIIVD] (H-LNYNYSLDKIIVD-OH)	0.113 ± 0.04	–
TT 503–515 peptide, unmodified	–	0.073
